Experiments:
Experiment in all cases: In vitro antibacterial evaluation: minimum inhibitory concentration (MIC), broth dilution method
Assay type in all cases: cell-based
Escherichia coli = conditions: 18 hours at 35° C.
How it was run: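 Inoculum: 5×10^5 CFU/mL. Range: 64-0.06 μg/mL. Medium: Muller-Hinton II […]; NCCLS M7-A2 broth dilution. Endpoint: lowest concentration inhibiting growth. Strains include methicillin-, penicillin- and/or vancomycin-resistant clinical isolates.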

Enterococcus sp. = conditions: 18 hours at 35° C.
How it was run: (§1)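 Following NCCLS approved standard M7-A2, compounds are serially diluted from 64 to 0.06 μg/mL in Muller-Hinton II […] and inoculated at 5×10^5 CFU/mL; the MIC is the minimum concentration at which growth is inhibited.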

Streptococcus sp. = conditions: 18 hours at 35° C.
How it was run: as §1

Staphylococcus sp. = conditions: for MIC Staphylococcus aureus (ATCC 29213): strain ATCC 29213; for MIC Staphylococcus aureus (GC 1131): strain GC 1131; for MIC Staphylococcus aureus (GC 3051): strain GC 3051; for MIC Staphylococcus aureus (GC 3053): strain GC 3053; for MIC Staphylococcus aureus (GC 4541): strain GC 4541; for MIC Staphylococcus aureus (GC 4542): strain GC 4542; for MIC Staphylococcus aureus-SMITH (GC 4543): strain GC 4543; for MIC Staphylococcus aureus (GC 4544): strain GC 4544; for MIC Staphylococcus aureus (GC 4545): strain GC 4545; for MIC Staphylococcus haemolyticus (GC 4546): strain GC 4546; for MIC Coagulase Negative Staphylococcus (GC 4547): strain GC 4547; for MIC Coagulase Negative Staphylococcus (GC 4548): strain GC 4548; for MIC Coagulase Negative Staphylococcus (GC 4549): strain GC 4549; for MIC Coagulase Negative Staphylococcus (GC 4551): strain GC 4551
How it was run: as §1

[1] = Enterococcus faecalis (ATCC 29212)
[2] = Enterococcus faecalis (GC 2242)
[3] = Enterococcus faecalis (GC 2691)
[4] = Enterococcus faecalis (GC 3059)
[5] = Enterococcus faecalis (GC 4552)
[6] = Enterococcus faecalis (GC 4553)
[7] = Enterococcus faecalis (GC 4554)
[8] = Enterococcus faecalis (GC 6189)
[9] = broth dilution, inoculum 5×10^5 CFU/mL
[10] = Streptococcus agalactiae (GC 4564)
[11] = Streptococcus pneumoniae (ATCC 6301)
[12] = Streptococcus pneumoniae (GC 1894)
[13] = Streptococcus pneumoniae (GC 4565)
[14] = Streptococcus pyogenes (GC 4563)

CC(C1CCCCC1)C1NC(=O)CNC(=O)C(CO)NC(=O)C(C(O)C2CNC(=N)N2C2OC(CO)C(O)C(O)C2O)NC(=O)C(C(O)C2CNC(=N)N2)NC(=O)C(Cc2ccc(OC3OC(CO)C(OC4OC5COC(c6ccccc6)OC5C(O)C4O)C(O)C3O)cc2)NC1=O (stereo not shown) [Example 201, Cyclo[3-cyclohexyl-2-aminobutanoyl-O-[4-O-[4,6-O-benzylidenehexonyranosyl]hexopyranosyl]tyrosyl-3-(2-iminoimidazolidin-4-yl)seryl-3-(3-hexopyranosyl-2-iminoimidazolidin-4-yl)serylserylglycyl]]
<0.12 µg/mL: MIC Streptococcus agalactiae (GC 4564) (Streptococcus sp.; [10]) | MIC Streptococcus pneumoniae (ATCC 6301) (Streptococcus sp.; [11]) | MIC Streptococcus pneumoniae (GC 1894) (Streptococcus sp.; [12]) | MIC Streptococcus pneumoniae (GC 4565) (Streptococcus sp.; [13]) | MIC Streptococcus pyogenes (GC 4563) (Streptococcus sp.; [14]) | MIC Streptococcus agalactiae (GC 4564) (Streptococcus sp.; [9]) | MIC Streptococcus pneumoniae (ATCC 6301) (Streptococcus sp.; [9]) | MIC Streptococcus pneumoniae (GC 1894) (Streptococcus sp.; [9]) | MIC Streptococcus pneumoniae (GC 4565) (Streptococcus sp.; [9]) | MIC Streptococcus pyogenes (GC 4563) (Streptococcus sp.; [9])
1 µg/mL: MIC Enterococcus avium (GC 4558) (Enterococcus sp.; Enterococcus avium (GC 4558)) | MIC Enterococcus faecalis (ATCC 29212) (Enterococcus sp.; [1]) | MIC Enterococcus faecalis (GC 2242) (Enterococcus sp.; [2]) | MIC Enterococcus faecalis (GC 2691) (Enterococcus sp.; [3]) | MIC Enterococcus faecalis (GC 3059) (Enterococcus sp.; [4]) | MIC Enterococcus faecalis (GC 4552) (Enterococcus sp.; [5]) | MIC Enterococcus faecalis (GC 4553) (Enterococcus sp.; [6]) | MIC Enterococcus faecalis (GC 4554) (Enterococcus sp.; [7]) | MIC Enterococcus faecalis (GC 6189) (Enterococcus sp.; [8]) | MIC Enterococcus faecium (GC 2243) (Enterococcus sp.; Enterococcus faecium (GC 2243)) | MIC Enterococcus faecium (GC 4556) (Enterococcus sp.; Enterococcus faecium (GC 4556)) | MIC Enterococcus avium (GC 4558) (Enterococcus sp.; [9]) | MIC Enterococcus faecalis (ATCC 29212) (Enterococcus sp.; [9]) | MIC Enterococcus faecalis (GC 2242) (Enterococcus sp.; [9]) | MIC Enterococcus faecalis (GC 2691) (Enterococcus sp.; [9]) | MIC Enterococcus faecalis (GC 3059) (Enterococcus sp.; [9]) | MIC Enterococcus faecalis (GC 4552) (Enterococcus sp.; [9]) | MIC Enterococcus faecalis (GC 4553) (Enterococcus sp.; [9]) | MIC Enterococcus faecalis (GC 4554) (Enterococcus sp.; [9]) | MIC Enterococcus faecalis (GC 6189) (Enterococcus sp.; [9]) | MIC Enterococcus faecium (GC 2243) (Enterococcus sp.; [9]) | MIC Enterococcus faecium (GC 4556) (Enterococcus sp.; [9])
0.25 µg/mL: MIC Escherichia coli (GC 4560) (Escherichia coli) | MIC Staphylococcus aureus (ATCC 29213) (Staphylococcus sp.) | MIC Staphylococcus aureus (GC 1131) (Staphylococcus sp.) | MIC Staphylococcus aureus (GC 4542) (Staphylococcus sp.) | MIC Staphylococcus aureus (GC 4544) (Staphylococcus sp.) | MIC Staphylococcus aureus (GC 4545) (Staphylococcus sp.) | MIC Staphylococcus haemolyticus (GC 4546) (Staphylococcus sp.) | MIC Coagulase Negative Staphylococcus (GC 4547) (Staphylococcus sp.) | MIC Coagulase Negative Staphylococcus (GC 4548) (Staphylococcus sp.) | MIC Coagulase Negative Staphylococcus (GC 4549) (Staphylococcus sp.) | MIC Coagulase Negative Staphylococcus (GC 4551) (Staphylococcus sp.)
16 µg/mL: MIC Escherichia coli (ATCC 25922) (Escherichia coli) | MIC Escherichia coli (GC 4559) (Escherichia coli)
0.5 µg/mL: MIC Enterococcus faecium (GC 4557) (Enterococcus sp.; Enterococcus faecium (GC 4557)) | MIC Enterococcus faecium (GC 4557) (Enterococcus sp.; [9]) | MIC Staphylococcus aureus (GC 3051) (Staphylococcus sp.) | MIC Staphylococcus aureus (GC 3053) (Staphylococcus sp.) | MIC Staphylococcus aureus (GC 4541) (Staphylococcus sp.) | MIC Staphylococcus aureus-SMITH (GC 4543) (Staphylococcus sp.)

CC(c1ccccc1)C1NC(=O)CNC(=O)C(CO)NC(=O)C(C(O)C2CNC(=N)N2C2OC(CO)C(O)C(O)C2O)NC(=O)C(C(O)C2CNC(=N)N2)NC(=O)C(Cc2ccc(OC3OC(CO)C(OC4OC5COC6(CCCCC6)OC5C(O)C4O)C(O)C3O)cc2)NC1=O (stereo not drawn) [Example 203, Cyclo[glycyl-β-methylphenylalanyl-O-[4-O-(4,6-O-cyclohexylidene-4-O-hexopyranosyl)hexopyranosyl]tyrosyl-3-(2-iminoimidazolidin-4-yl)seryl-3-(3-hexopyranosyl-2-iminoimidazolidin-4-yl)serylseryl]]
64 µg/mL: MIC Escherichia coli (ATCC 25922) (Escherichia coli)
32 µg/mL: MIC Escherichia coli (GC 4559) (Escherichia coli)
8 µg/mL: MIC Enterococcus avium (GC 4558) (Enterococcus sp.; Enterococcus avium (GC 4558)) | MIC Enterococcus faecalis (ATCC 29212) (Enterococcus sp.; [1]) | MIC Enterococcus faecalis (GC 2691) (Enterococcus sp.; [3]) | MIC Enterococcus faecalis (GC 3059) (Enterococcus sp.; [4]) | MIC Enterococcus faecalis (GC 4552) (Enterococcus sp.; [5]) | MIC Enterococcus faecalis (GC 4553) (Enterococcus sp.; [6]) | MIC Enterococcus faecalis (GC 4554) (Enterococcus sp.; [7]) | MIC Enterococcus faecalis (GC 6189) (Enterococcus sp.; [8]) | MIC Enterococcus faecium (GC 2243) (Enterococcus sp.; Enterococcus faecium (GC 2243)) | MIC Enterococcus avium (GC 4558) (Enterococcus sp.; [9]) | MIC Enterococcus faecalis (ATCC 29212) (Enterococcus sp.; [9]) | MIC Enterococcus faecalis (GC 2691) (Enterococcus sp.; [9]) | MIC Enterococcus faecalis (GC 3059) (Enterococcus sp.; [9]) | MIC Enterococcus faecalis (GC 4552) (Enterococcus sp.; [9]) | MIC Enterococcus faecalis (GC 4553) (Enterococcus sp.; [9]) | MIC Enterococcus faecalis (GC 4554) (Enterococcus sp.; [9]) | MIC Enterococcus faecalis (GC 6189) (Enterococcus sp.; [9]) | MIC Enterococcus faecium (GC 2243) (Enterococcus sp.; [9])
4 µg/mL: MIC Enterococcus faecalis (GC 2242) (Enterococcus sp.; [2]) | MIC Enterococcus faecium (GC 4556) (Enterococcus sp.; Enterococcus faecium (GC 4556)) | MIC Enterococcus faecium (GC 4557) (Enterococcus sp.; Enterococcus faecium (GC 4557)) | MIC Enterococcus faecalis (GC 2242) (Enterococcus sp.; [9]) | MIC Enterococcus faecium (GC 4556) (Enterococcus sp.; [9]) | MIC Enterococcus faecium (GC 4557) (Enterococcus sp.; [9]) | MIC Staphylococcus aureus (GC 3053) (Staphylococcus sp.)
0.25 µg/mL: MIC Streptococcus pneumoniae (GC 4565) (Streptococcus sp.; [13]) | MIC Streptococcus pneumoniae (GC 4565) (Streptococcus sp.; [9])
2 µg/mL: MIC Escherichia coli (GC 4560) (Escherichia coli) | MIC Staphylococcus aureus (GC 1131) (Staphylococcus sp.) | MIC Staphylococcus aureus (GC 3051) (Staphylococcus sp.) | MIC Staphylococcus aureus-SMITH (GC 4543) (Staphylococcus sp.) | MIC Staphylococcus aureus (GC 4544) (Staphylococcus sp.) | MIC Coagulase Negative Staphylococcus (GC 4547) (Staphylococcus sp.) | MIC Coagulase Negative Staphylococcus (GC 4551) (Staphylococcus sp.)
0.12 µg/mL: MIC Streptococcus pneumoniae (GC 1894) (Streptococcus sp.; [12]) | MIC Streptococcus pneumoniae (GC 1894) (Streptococcus sp.; [9])
1 µg/mL: MIC Streptococcus agalactiae (GC 4564) (Streptococcus sp.; [10]) | MIC Streptococcus agalactiae (GC 4564) (Streptococcus sp.; [9]) | MIC Staphylococcus aureus (ATCC 29213) (Staphylococcus sp.) | MIC Staphylococcus aureus (GC 4541) (Staphylococcus sp.) | MIC Staphylococcus aureus (GC 4542) (Staphylococcus sp.) | MIC Staphylococcus aureus (GC 4545) (Staphylococcus sp.) | MIC Staphylococcus haemolyticus (GC 4546) (Staphylococcus sp.) | MIC Coagulase Negative Staphylococcus (GC 4548) (Staphylococcus sp.) | MIC Coagulase Negative Staphylococcus (GC 4549) (Staphylococcus sp.) | MIC Coagulase Negative Staphylococcus (GC 6257) (Staphylococcus sp.; strain GC 6257)
0.5 µg/mL: MIC Streptococcus pneumoniae (ATCC 6301) (Streptococcus sp.; [11]) | MIC Streptococcus pyogenes (GC 4563) (Streptococcus sp.; [14]) | MIC Streptococcus pneumoniae (ATCC 6301) (Streptococcus sp.; [9]) | MIC Streptococcus pyogenes (GC 4563) (Streptococcus sp.; [9])

Source: patent publication US8247211B2, “Glycopeptide antibiotics” (American Cyanamid Company, priority 2001, dated 2012)
